For test [1], the system named is Trp1455/9M-specific CD8 T cells. Description: In vivo cellular immune response assay (immune adjuvant). Set-up: species or system B6 mice. The following applies: for fluorescence of stained tetramer positive CD8 T cells: day 7; for maximum amount of fluorescently stained tetramer positive CD8 T cells: day 7, peripheral blood, i.v. immunization, n=3. As to the method: To assess the efficacy of T-02 as an immune adjuvant, mice were immunized i.v. with a mixture of 100 μg optimized Trp1455/9M peptide (Guevara-Patino, J. A., et al. J Clin Invest, 2006. 116(5):1382-90), 50 μg anti-CD40 mAb (Clone; FGk-45.5), and 50 μg TLR-2 peptide (T-02, Pam2CSK4, or Pam3CSK4). […] The response of tetramer+ CD8 T cells in the blood was measured on day 7, 21, and 34 by tetramer staining. For tetramer staining, peripheral blood was taken from the submandibular vein and treated briefly with ammonium chloride buffer to lyse red blood cells. Blood cells were stained with FITC-conjugated anti-MHC class II, PerCP Cy5.5-conjugated CD8a (both from eBioscience, San Diego, Calif.), and phycoerythrin-conjugated Trp1455/9M/H-2D^b tetramers (provided by the NIH tetramer Facility, Emory University, Atlanta Ga.) for 40 min in ice. Fluorescence was evaluated using a FACSCalibur™ flow cytometer (BD Biosciences) and analyzed using FlowJo software.
C57BL/6 (B6) mice 6-8 weeks old were purchased from Charles River (Wilmington, Mass.). To assess the efficacy of 10 as an immune adjuvant, B6 mice were immunized i.v. with a mixture (in a volume of 200 μl) of 100 μg optimized Trp1455/9M peptide,[10c] 50 μg anti-CD40 monoclonal antibody (Clone; FGk-45.5), and 50 μg TLR2 agonist (10, Pam2CSK4, or Pam3CSK4). […] The response of tetramer positive CD8 T cells in the blood was measured on day 7, 21 and 34 by tetramer staining. For tetramer staining, peripheral blood was taken from the submandibular vein and treated briefly with ammonium chloride buffer to lyse red blood cells. Blood cells were stained with FITC-conjugated anti-MHC class II, PerCP Cy5.5-conjugated CD8a, and phycoerythrin-conjugated Trp1455/9M/H-2D^b tetramers for 40 min in ice. Fluorescence was evaluated using a FACSCalibur flow cytometer (BD Biosciences) and analyzed using FlowJo software.

The next test has as its target TLR2 (Homo sapiens, UniProt O60603). Briefly: In vitro TLR2 functional bioassay (NF-κB luciferase, HEK293/hTLR2 cells). The class given is cell-based. Also on record: host or cells: HEK293 stably transfected with pUNO-hTLR2, transiently transfected with the pNifty-Luc reporter. The source says: In Vitro TLR2 Functional Bioassay The in vitro TLR2 functional bioassay was developed and optimized for use in screening soluble compound libraries to identify both TLR2 agonists and antagonists. In this study, the TLR2 functional bioassay was used as a fast high throughput screening to identify TLR2 agonist ligands by measuring the inducing activity of NF-κB. HEK293/hTLR2 cells, highly overexpressing human TLR2, were used along with the parental HEK293, cells as a negative control. Cells were seeded at a density of 40,000 per well using a WellMate® Microplate dispenser (Thermo Fischer Scientific/Matrix) in black 96-well plates with opaque white wells (Perkin Elmer Wallac, Waltham, Mass.) and then incubated at 37° C. On day 2, the cells were transiently transfected with pNifty-Luc (InvivoGen), an NF-κB inducible reporter plasmid expressing the luciferase reporter gene (Zuany-Amorim, C., J., et al. Nat Rev Drug Discov, 2002. 1(10):797-807), using an optimized 4:1 ratio by volume of Fugene® HD Transfection Reagent (Roche Applied Science, Indianapolis, Ind.) to pNifty-Luc plasmid DNA (1 μg/mL). […] On day 4 after 24 hrs of peptide stimulation, luciferase induced activity by the induction of NF-κB was measured. Media was aspirated from the wells using an ELx405 Select plate washer (BioTek, Winooski, Vt.), 150 μg/mL D-luciferin (Gold Biotechnology, St. Louis, Mo.) was dispensed using the microplate dispensor; the plates were incubated at 37° C. for 5 min. The luminescence intensity was measured using the standard luminescence protocol on a Victor™ X4 plate-reader equipped with a plate stacker for readout of multiple plates at a time (PerkinElmer, Waltham, Mass.). For each in vitro TLR2 bioassay, at least three different experiments were performed in triplicate (n=3+). Data were analyzed with GraphPad Prism software and curves were generated with the appropriate nonlinear fit regression analysis.
The in vitro TLR2 functional bioassay was developed and optimized for use in high-throughput screening of soluble compound libraries to identify both TLR2 agonists and antagonists. The bioassay measures the induction of NF-κB signaling via TLR2 in HEK-293/hTLR2 cells and parental HEK-293 cells as a negative control. Cells were seeded at a density of 40,000 per well using a WellMate Microplate dispenser (Thermo Fisher Scientific/Matrix) in black 96-well plates with opaque white wells (PerkinElmer, Waltham, Mass.) and then incubated at 37° C. On day 2, the cells were transiently transfected with pNifty-Luc (InvivoGen, San Diego, Calif.), an NF-κB inducible reporter plasmid expressing the luciferase reporter gene[28] using an optimized 4:1 ratio by volume of FugeneHD Transfection Reagent (Promega, Madison, Wis.) to pNifty-Luc plasmid DNA (1 μg/mL). […] […] On day 4 after 24 h of peptide stimulation, luciferase induced activity by the induction of NF-κB was measured. Media was aspirated from the wells using an ELx405 Select CW plate washer (BioTek, Winooski, Vt.), 150 μg/mL D-luciferin (Gold Biotechnology, St. Louis, Mo.) was dispensed using the microplate dispensor; the plates were incubated at 37° C. for 5 min. The luminescence intensity was measured using the standard luminescence protocol on a Victor X4 Multilabel plate reader equipped with a plate stacker for readout of multiple plates at a time (PerkinElmer, Waltham, Mass.). […] Data were analyzed with GraphPad Prism software and curves were generated with the appropriate nonlinear fit regression analysis.

Setting [2] is: dose-response 0.001 ng/mL to 10 μg/mL, read-out: TLR2 Agonist Activity EC50.
The mark [3] stands for this setting: log(agonist) vs. normalized response, doses 0.01 ng/mL to 1 μg/mL, read-out: EC50.

pEC50: −log10 of the molar value. Like-named read-outs stand apart in the source and are kept apart here.

The record followed here is US11458212B2, “Molecular imaging of cancer cells in vivo” (H. Lee Moffitt Cancer Center and Research Institute, Inc., priority 2011, dated 2022).

Sequence of TLR2 (O60603 21-784): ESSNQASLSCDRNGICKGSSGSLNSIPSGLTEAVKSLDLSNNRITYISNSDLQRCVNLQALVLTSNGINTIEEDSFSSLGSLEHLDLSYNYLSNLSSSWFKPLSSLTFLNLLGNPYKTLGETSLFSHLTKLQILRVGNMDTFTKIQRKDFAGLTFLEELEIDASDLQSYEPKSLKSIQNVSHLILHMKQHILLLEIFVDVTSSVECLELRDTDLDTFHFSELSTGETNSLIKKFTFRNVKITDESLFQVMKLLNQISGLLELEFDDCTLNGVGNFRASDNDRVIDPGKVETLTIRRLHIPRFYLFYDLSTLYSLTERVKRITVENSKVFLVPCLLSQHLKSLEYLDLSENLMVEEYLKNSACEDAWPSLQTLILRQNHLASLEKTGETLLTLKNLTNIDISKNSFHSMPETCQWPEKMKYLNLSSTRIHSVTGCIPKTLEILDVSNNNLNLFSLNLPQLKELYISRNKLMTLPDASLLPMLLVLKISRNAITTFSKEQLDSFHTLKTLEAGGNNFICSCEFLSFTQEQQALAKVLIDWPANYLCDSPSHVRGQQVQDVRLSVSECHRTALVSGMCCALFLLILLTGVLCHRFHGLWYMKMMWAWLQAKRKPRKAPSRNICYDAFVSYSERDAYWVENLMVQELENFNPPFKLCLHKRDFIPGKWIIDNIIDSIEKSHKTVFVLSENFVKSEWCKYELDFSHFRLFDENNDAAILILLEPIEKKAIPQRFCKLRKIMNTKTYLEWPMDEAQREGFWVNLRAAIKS
Sequence of TLR2 (Q9Y2C9 32-796 partner): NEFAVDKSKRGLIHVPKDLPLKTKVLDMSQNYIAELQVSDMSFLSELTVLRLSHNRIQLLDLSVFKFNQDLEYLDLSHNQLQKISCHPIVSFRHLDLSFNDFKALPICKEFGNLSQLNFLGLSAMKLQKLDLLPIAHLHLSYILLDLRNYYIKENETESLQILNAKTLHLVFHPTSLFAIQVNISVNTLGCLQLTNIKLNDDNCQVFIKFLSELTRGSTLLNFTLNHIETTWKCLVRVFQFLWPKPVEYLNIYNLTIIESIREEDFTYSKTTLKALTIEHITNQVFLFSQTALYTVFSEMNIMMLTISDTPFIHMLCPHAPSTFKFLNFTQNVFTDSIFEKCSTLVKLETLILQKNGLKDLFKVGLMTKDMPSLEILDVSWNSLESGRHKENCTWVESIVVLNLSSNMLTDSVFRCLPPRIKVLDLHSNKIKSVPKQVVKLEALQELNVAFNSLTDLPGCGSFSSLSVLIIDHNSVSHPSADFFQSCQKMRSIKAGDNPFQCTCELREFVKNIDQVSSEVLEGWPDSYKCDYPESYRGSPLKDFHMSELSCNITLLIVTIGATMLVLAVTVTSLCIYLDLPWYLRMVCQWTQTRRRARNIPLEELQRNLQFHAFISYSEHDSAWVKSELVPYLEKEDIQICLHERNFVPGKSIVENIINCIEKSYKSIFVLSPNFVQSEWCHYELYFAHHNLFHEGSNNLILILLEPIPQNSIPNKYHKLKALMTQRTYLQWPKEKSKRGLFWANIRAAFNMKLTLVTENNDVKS

As to `CCCCCCCCCCCCCCCC(=O)OCC(CSC[C@H](N)C(=O)N[C@@H](CO)C(=O)N[C@@H](CCCCN)C(=O)N[C@@H](CCCCN)C(=O)N[C@@H](CCCCN)C(=O)N[C@@H](CCCCN)C(=O)O)OC(=O)CCCCCCCCCCCCCCC` (mixture of isomers) [Pam2CSK4, S-[2,3-bis(palmitoyloxy)-(2RS)-propyl]-[R]-cysteinyl-[S]-seryl-[S]-lysyl-[S]-lysyl-[S]-lysyl-[S]-lysine, reference compound], in test [1], the “fluorescence of stained tetramer positive CD8 T cells” value was “High fluorescence” and the “maximum amount of fluorescently stained tetramer positive CD8 T cells” value stood at 56.6%. On TLR2 (setting [2]), the pEC50 is 8.43. For the same compound, on TLR2 (setting [3]), the negative logarithm of the EC50 (pEC50) is 8.44.
Consider `CCCCCCCCCCCCCCCC(=O)N[C@@H](CSCC(COC(=O)CCCCCCCCCCCCCCC)OC(=O)CCCCCCCCCCCCCCC)C(=O)N[C@@H](CO)C(=O)N[C@@H](CCCCN)C(=O)N[C@@H](CCCCN)C(=O)N[C@@H](CCCCN)C(=O)N[C@@H](CCCCN)C(=O)O` (mixture of isomers) [Pam3CSK4, N-Palmitoyl-S-[2,3-bis(palmitoyloxy)-(2RS)-propyl]-[R]-cysteinyl-[S]-seryl-[S]-lysyl-[S]-lysyl-[S]-lysyl-[S]-lysine, reference compound], for which, in test [1], the “fluorescence of stained tetramer positive CD8 T cells” value was “High fluorescence” and the “maximum amount of fluorescently stained tetramer positive CD8 T cells” value came out at 51.7%. In addition, the “luciferase activity relative to cells incubated with no ligand” value at TLR2 (24 h post ligand stimulation, n=6) is reported as 50 fold. Moreover, the pEC50 at TLR2 (setting [2]) was 7.64. The negative-log EC50 (pEC50) on TLR2 (setting [3]) is 7.65.
